Data as given in PubChem BioAssay (NCI).
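All cell lines were grown in 96-well plates and treated with compound for 48 hours. TGI marks complete inhibition of growth.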

Columns and labels:
Assay in all cases: NCI anticancer screen, dose series, 48 h
RPMI-8226 leukemia = test system: RPMI-8226 leukemia
TK-10 renal = test system: TK-10 renal
HCT-15 colon = test system: HCT-15 colon
DLD-1 colon = test system: DLD-1 colon
UO-31 renal = test system: UO-31 renal
SK-MEL-5 melanoma = test system: SK-MEL-5 melanoma
UACC-257 melanoma = test system: UACC-257 melanoma
NCI-H226 lung = test system: NCI-H226 lung
786-0 renal = test system: 786-0 renal
OVCAR-4 ovarian = test system: OVCAR-4 ovarian
DMS 114 small cell lung = test system: DMS 114 small cell lung
HT29 colon = test system: HT29 colon
A498 renal = test system: A498 renal
LXFL 529 NSCLC = test system: LXFL 529 NSCLC
RXF-631 renal = test system: RXF-631 renal
SW-620 colon = test system: SW-620 colon
HOP-92 NSCLC = test system: HOP-92 NSCLC
NCI-H460 lung = test system: NCI-H460 lung
OVCAR-3 ovarian = test system: OVCAR-3 ovarian
ACHN renal = test system: ACHN renal
HOP-18 NSCLC = test system: HOP-18 NSCLC
M14 melanoma = test system: M14 melanoma
CAKI-1 renal = test system: CAKI-1 renal
SF-539 CNS = test system: SF-539 CNS
LOX IMVI melanoma = test system: LOX IMVI melanoma
SR leukemia = test system: SR leukemia
KM12 colon = test system: KM12 colon
MALME-3M melanoma = test system: MALME-3M melanoma
RXF 393 renal = test system: RXF 393 renal
HCT-116 colon = test system: HCT-116 colon
OVCAR-5 ovarian = test system: OVCAR-5 ovarian
U251 CNS = test system: U251 CNS
A549 NSCLC = test system: A549 NSCLC
EKVX NSCLC = test system: EKVX NSCLC
SN12C renal = test system: SN12C renal
UACC-62 melanoma = test system: UACC-62 melanoma
SF-268 CNS = test system: SF-268 CNS
HOP-62 NSCLC = test system: HOP-62 NSCLC
MOLT-4 leukemia = test system: MOLT-4 leukemia
KM20L2 colon = test system: KM20L2 colon
K-562 leukemia = test system: K-562 leukemia
SF-295 CNS = test system: SF-295 CNS
HCC-2998 colon = test system: HCC-2998 colon
M19-MEL melanoma = test system: M19-MEL melanoma
SNB-75 CNS = test system: SNB-75 CNS
CCRF-CEM leukemia = test system: CCRF-CEM leukemia
OVCAR-8 ovarian = test system: OVCAR-8 ovarian
NCI-H522 lung = test system: NCI-H522 lung
HL-60(TB) leukemia = test system: HL-60(TB) leukemia
SK-OV-3 ovarian = test system: SK-OV-3 ovarian
SNB-78 CNS = test system: SNB-78 CNS
COLO 205 colon = test system: COLO 205 colon
SK-MEL-28 melanoma = test system: SK-MEL-28 melanoma
SNB-19 CNS = test system: SNB-19 CNS
NCI-H23 lung = test system: NCI-H23 lung
IGROV1 ovarian = test system: IGROV1 ovarian

Measured: TGI

C[C@H](OCc1ccccc1)C(=O)N1CCS(=O)(=O)N2CCC[C@H]2C1=O
> 100 µM: RPMI-8226 leukemia | TK-10 renal | HCT-15 colon | DLD-1 colon | UO-31 renal | SK-MEL-5 melanoma | UACC-257 melanoma | NCI-H226 lung | 786-0 renal | OVCAR-4 ovarian | DMS 114 small cell lung | HT29 colon | A498 renal | LXFL 529 NSCLC | RXF-631 renal | SW-620 colon | HOP-92 NSCLC | NCI-H460 lung | OVCAR-3 ovarian | ACHN renal | HOP-18 NSCLC | M14 melanoma | CAKI-1 renal | SF-539 CNS | LOX IMVI melanoma | SR leukemia | KM12 colon | MALME-3M melanoma | RXF 393 renal | HCT-116 colon | OVCAR-5 ovarian | U251 CNS | A549 NSCLC | EKVX NSCLC | SN12C renal | UACC-62 melanoma | SF-268 CNS | HOP-62 NSCLC | MOLT-4 leukemia | KM20L2 colon | K-562 leukemia | SF-295 CNS | HCC-2998 colon | M19-MEL melanoma | SNB-75 CNS | CCRF-CEM leukemia | OVCAR-8 ovarian | NCI-H522 lung | HL-60(TB) leukemia | SK-OV-3 ovarian | SNB-78 CNS | COLO 205 colon | SK-MEL-28 melanoma | SNB-19 CNS | NCI-H23 lung | IGROV1 ovarian
